Where two headings read alike, the source gives them in different places.
What was measured:
[1] = biological target: T1, dopamine D2 receptors (Homo sapiens (Human), UniProt P14416); experiment: Dopamine D2 receptor radioligand competition binding assay ([3H]-Methylspiperone); conditions: [3H]-Methylspiperone 0.3 to 0.5 nM, 293T membranes
Outline: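 Membranes from cells transfected with human D2 receptor, PEI-mediated; competition with [3H]-methylspiperone for 2 h at room temperature in the dark.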

[2] = Pharmacokinetics in SD rats, single dose intragastric and intravenous; assay type: in vivo; conditions: for Cmax / half-life / Vd / AUC(0-t) / clearance / MRT / bioavailability / Tmax: male, rat, plasma; for half-life: read-out: Elimination half-life t1/2 (converted); for Vd: read-out: Apparent volume of distribution Vdss; for AUC(0-t): read-out: Area under the drug-time curve AUC0-t; for clearance: read-out: Clearance CL; for MRT: read-out: Mean residence time MRT; for bioavailability: read-out: Bioavailability F; for Tmax: read-out: Time to peak concentration tmax
Method: Testing of pharmacokinetic properties of compounds administered in a single dose to SD rats by intragastric administration and intravenous injection
After the compound was administered in a single dose to male SD rats, blood samples were collected at different time points. The concentration of the compound in the plasma of the rats was determined by LC-MS/MS and the relevant pharmacokinetic parameters were calculated to investigate the pharmacokinetics of the compound in rats.
Male SD rats were provided by Suzhou JOINN Laboratories Co., Ltd. SD rats were fasted with free access to water for 12 to 14 hours one day before administration, and were fed 4 hours after administration.
For each compound, the […] were divided into two groups: intravenous injection and intragastric administration, with 3 rats in each group. For both intravenous injection (administered at a dose of 3 mg/kg and a concentration of 0.6 mL/kg) and intragastric administration (administered at a dose of 10 mg/kg and a concentration of 1 mL/kg), 5% DMSO+5% Solutol+90% saline was used as the vehicle.
Sample collection: 0.10 mL of blood was collected from the orbit of each animal in IV/PO groups each time at 5 minutes, 15 minutes, 30 minutes, 1 hour, 2 hours, 4 hours, 6 hours, 8 hours, and 24 hours after administration of the test compound, and anticoagulated with EDTA-K2. Blood samples were placed on ice after collection, and plasma was separated by centrifugation within 30 minutes (centrifugation conditions: 5000 rpm, 10 minutes, 4° C.). The collected plasma was stored at −80° C. before analysis.
Data processing: The data acquisition and control system software was Analyst 1.5.1 software (Applied Biosystem). The peak integration method of chromatographic samples was automatic integration; the ratio of the peak area of the sample to the peak area of the internal standard was used as an index for regression with the concentration of the sample. […] Pharmacokinetic parameters were analyzed with a non-compartmental model using WinNonlin Professional v6.3 (Pharsight, USA). Cmax was the measured maximum plasma concentration, the area under the plasma concentration-time curve AUC(0→t) was calculated by the trapezoidal method, and tmax was the time to peak plasma concentration after administration. Experimental data were presented as “Mean±SD” (n≥3) or “Mean” (n=2).

[3] = biological target: T1, dopamine D2 receptors; experiment: Dopamine D2 receptor β-arrestin2 BRET (recruitment); assay type: cell-based; conditions: for Emax: relative to endogenous ligand dopamine, read-out: β-arrestin2 BRET Emax % ± SEM
Outline: (§1)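 G-protein assay: cells co-transfected with D2 receptor, Gαi1-Rluc, Gβ3 and Gγ9-GFP (1 μg each); β-arrestin2 assay: D2-Rluc, GRK2 and GFP2-β-arrestin2 co-transfected. Cells were reseeded after one day and tested on day three. Drug dilution series were added in duplicate with coelenterazine 400a (5 μM final), and the BRET signal was read.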

[4] = biological target: T1, dopamine D2 receptors; experiment: Dopamine D2 receptor Gαi1 BRET (G protein trimer dissociation); assay type: cell-based; conditions: for Emax: relative to endogenous ligand dopamine, read-out: Gαi1 BRET Emax % ± SEM
Outline: as §1

[5] = intravenous injection, 3 mg/kg, read-out: Peak drug concentration C0 or Cmax
[6] = unit printed only in Cariprazine cell, read-out: β-arrestin2 BRET EC50
[7] = read-out: Gαi1 BRET pEC50 ± SEM (converted)
[8] = unit printed only in Cariprazine cell, read-out: Gαi1 BRET EC50
[9] = read-out: Affinity pKi ± SEM (converted)
[10] = oral administration, 10 mg/kg, read-out: Peak drug concentration Cmax
[11] = read-out: β-arrestin2 BRET pEC50 ± SEM (converted)

T1 sequence (P14416 whole entry): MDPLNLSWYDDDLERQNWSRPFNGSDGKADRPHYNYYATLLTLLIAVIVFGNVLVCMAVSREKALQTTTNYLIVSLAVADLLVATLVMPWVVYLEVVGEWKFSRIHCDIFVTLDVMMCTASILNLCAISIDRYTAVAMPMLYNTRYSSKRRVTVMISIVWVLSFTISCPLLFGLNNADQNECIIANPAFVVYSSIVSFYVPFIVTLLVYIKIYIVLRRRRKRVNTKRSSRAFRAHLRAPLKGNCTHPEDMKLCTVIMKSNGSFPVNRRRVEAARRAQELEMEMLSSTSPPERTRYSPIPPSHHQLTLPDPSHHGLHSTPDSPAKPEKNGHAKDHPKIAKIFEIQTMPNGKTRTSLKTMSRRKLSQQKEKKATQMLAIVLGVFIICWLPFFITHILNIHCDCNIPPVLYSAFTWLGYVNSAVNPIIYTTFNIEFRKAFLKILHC

With `COc1cccc2c3c(oc12)CN(CCCCOc1ccc2ccc(=O)[nH]c2c1)CC3` [I-A1, 7-(4-(8-methoxy-3,4-dihydrobenzofuro[2,3-c]pyridin-2(1H)-yl)butoxy)quinolin-2(1H)-one] the “Affinity pKi ± SEM” value [1] was “(7.07 ± 0.02)”, the Ki ([1]; read-out: Affinity Ki) was 0.0844 µM and the “Area under the drug-time curve AUC0-t” value ([2]; intravenous injection, 3 mg/kg) was 2991 ± 212 ng·h/mL. The “Clearance CL” value ([2]; intravenous injection, 3 mg/kg) was 16.7 ± 1.12 mL/min/kg, the “Elimination half-life t1/2” value ([2]; intravenous injection, 3 mg/kg) was 3.48 ± 0.1 h and the Cmax [2, 5] was 1330 ± 117 ng/mL. The half-life ([2]; oral administration, 10 mg/kg) was 3.91 ± 0.3 h, the “Area under the drug-time curve AUC0-t” value ([2]; oral administration, 10 mg/kg) was 8916 ± 3642 ng·h/mL and the “Bioavailability F” value ([2]; oral administration, 10 mg/kg) was 88.8 ± 36%. For the same compound, the “Peak drug concentration Cmax” value ([2]; oral administration, 10 mg/kg) was 1555 ± 362 ng/mL, the “Time to peak concentration tmax” value ([2]; oral administration, 10 mg/kg) was 0.50 ± 0 h and the “β-arrestin2 BRET pEC50 ± SEM” value [3] was “(7.62 ± 0.17)”. The EC50 [3, 6] was 0.0277 µM, the EC50 [4, 7] was 0.0234 µM and the Emax [4] was 55%. For the same compound, the EC50 [4, 8] was 0.0488 µM.

For `COc1cccc2c3c(oc12)CN(CC[C@H]1CC[C@H](NC(=O)N(C)C)CC1)CC3` [I-A12, 3-(trans-4-(2-(8-methoxy-3,4-dihydrobenzofuro[2,3-c]pyridin-2(1H)-yl)ethyl)cyclohexyl)-1,1-dimethylurea], the Ki ([1]; read-out: Affinity Ki) was 0.436 µM, the Ki [1, 9] was 0.372 µM and the Vd ([2]; intravenous injection, 3 mg/kg) was 9.14 ± 1.5 L/kg. It also gave an AUC(0-t) ([2]; intravenous injection, 3 mg/kg) of 1100 ± 215 ng·h/mL, a clearance ([2]; intravenous injection, 3 mg/kg) of 45.4 ± 7.9 mL/min/kg and a half-life ([2]; intravenous injection, 3 mg/kg) of 4.14 ± 0.7 h. It also gave an MRT ([2]; intravenous injection, 3 mg/kg) of 3.36 ± 0.2 h, a Cmax [2, 5] of 824 ± 299 ng/mL and an AUC(0-t) ([2]; oral administration, 10 mg/kg) of 5660 ± 2660 ng·h/mL. It also gave a bioavailability ([2]; oral administration, 10 mg/kg) of 151 ± 71%, a half-life ([2]; oral administration, 10 mg/kg) of 3.58 ± 0.5 h and an MRT ([2]; oral administration, 10 mg/kg) of 4.42 ± 0.66 h. It also gave a Cmax [2, 10] of 963 ± 322 ng/mL, a Tmax ([2]; oral administration, 10 mg/kg) of 0.833 ± 1 h and an EC50 [3, 11] of 0.00813 µM. The Emax [3] was 108%, the EC50 [3, 6] was 0.0107 µM and the Emax [4] was 70%. It also gave an EC50 [4, 8] of 0.00138 µM.

`COc1cccc2c3c([nH]c12)CN(CC[C@H]1CC[C@H](NC(=O)N(C)C)CC1)CC3` [I-B7, 3-(trans-4-(2-(8-methoxy-1,3,4,9-tetrahydro-2H-pyrido[3,4-b]indol-2-yl)ethyl)cyclohexyl)-1,1-dimethylurea] showed a Ki ([1]; read-out: Affinity Ki) of 0.00271 µM, a Ki [1, 9] of 0.00182 µM and a Vd ([2]; intravenous injection, 3 mg/kg) of 7.56 ± 0.4 L/kg. It also gave an AUC(0-t) ([2]; intravenous injection, 3 mg/kg) of 2350 ± 127 ng·h/mL, a clearance ([2]; intravenous injection, 3 mg/kg) of 21 ± 1.2 mL/min/kg and a half-life ([2]; intravenous injection, 3 mg/kg) of 3.91 ± 0.3 h. It also gave an MRT ([2]; intravenous injection, 3 mg/kg) of 6.01 ± 0.2 h, a Cmax [2, 5] of 330 ± 61 ng/mL and an AUC(0-t) ([2]; oral administration, 10 mg/kg) of 10200 ± 945 ng·h/mL. The bioavailability ([2]; oral administration, 10 mg/kg) was 128 ± 12%, the half-life ([2]; oral administration, 10 mg/kg) was 5.12 ± 0.7 h and the MRT ([2]; oral administration, 10 mg/kg) was 8.08 ± 0.23 h. It also gave a Cmax [2, 10] of 734 ± 34 ng/mL, a Tmax ([2]; oral administration, 10 mg/kg) of 3.17 ± 4 h and an EC50 [3, 11] of 0.000107 µM. It also gave an Emax [3] of 44%, an EC50 [3, 6] of 0.00024 µM and an EC50 [4, 7] of 0.0112 µM. It also gave an Emax [4] of 21% and an EC50 [4, 8] of 0.017 µM.

`COc1cccc2c1cc1n2CCN(CCCCOc2ccc3ccc(=O)[nH]c3c2)C1` [I-C1, 7-(4-(9-methoxy-3,4-dihydropyrazino[1,2-a]indol-2(1H)-yl)butoxy)quinolin-2(1H)-one] gave a Ki ([1]; read-out: Affinity Ki) of 0.401 µM, a Ki [1, 9] of 0.269 µM and a Vd ([2]; intravenous injection, 3 mg/kg) of 2.16 ± 0.1 L/kg. It also gave an AUC(0-t) ([2]; intravenous injection, 3 mg/kg) of 4970 ± 751 ng·h/mL, a clearance ([2]; intravenous injection, 3 mg/kg) of 10.1 ± 1.4 mL/min/kg and a half-life ([2]; intravenous injection, 3 mg/kg) of 3.63 ± 0.7 h. It also gave an MRT ([2]; intravenous injection, 3 mg/kg) of 3.58 ± 0.3 h, a Cmax [2, 5] of 3310 ± 349 ng/mL and an AUC(0-t) ([2]; oral administration, 10 mg/kg) of 8140 ± 2050 ng·h/mL. It also gave a bioavailability ([2]; oral administration, 10 mg/kg) of 48.8%, a half-life ([2]; oral administration, 10 mg/kg) of 7.36 ± 4.2 h and an MRT ([2]; oral administration, 10 mg/kg) of 10 ± 6.5 h. For the same compound, the Cmax [2, 10] was 1150 ± 198 ng/mL, the Tmax ([2]; oral administration, 10 mg/kg) was 0.25 h and the Emax [3] was 117%. It also gave an EC50 [3, 6] of 0.22 µM, an EC50 [4, 7] of 0.00631 µM and an Emax [4] of 72%. It also gave an EC50 [4, 8] of 0.00794 µM.

`COc1cccc2c1cc1n2CCN(CCCCOc2ccc3c(c2)NC(=O)CC3)C1` [I-C2, 7-(4-(9-methoxy-3,4-dihydropyrazino[1,2-a]indol-2(1H)-yl)butoxy)-3,4-dihydroquinolin-2(1H)-one] showed a Ki ([1]; read-out: Affinity Ki) of 0.221 µM, a Ki [1, 9] of 0.0617 µM and a Vd ([2]; intravenous injection, 3 mg/kg) of 1.51 ± 0.3 L/kg. The AUC(0-t) ([2]; intravenous injection, 3 mg/kg) was 2790 ± 842 ng·h/mL, the clearance ([2]; intravenous injection, 3 mg/kg) was 19.1 ± 6.8 mL/min/kg and the half-life ([2]; intravenous injection, 3 mg/kg) was 1.79 ± 1.1 h. The MRT ([2]; intravenous injection, 3 mg/kg) was 1.38 ± 0.3 h, the Cmax [2, 5] was 3340 ± 629 ng/mL and the AUC(0-t) ([2]; oral administration, 10 mg/kg) was 7730 ± 467 ng·h/mL. The bioavailability ([2]; oral administration, 10 mg/kg) was 82.4 ± 5%, the half-life ([2]; oral administration, 10 mg/kg) was 4.09 ± 1.6 h and the MRT ([2]; oral administration, 10 mg/kg) was 5.46 ± 0.09 h. For the same compound, the Cmax [2, 10] was 1310 ± 701 ng/mL, the Tmax ([2]; oral administration, 10 mg/kg) was 0.33 ± 0.14 h and the EC50 [3, 11] was 0.0661 µM. It also gave an Emax [3] of 115%, an EC50 [3, 6] of 0.122 µM and an EC50 [4, 7] of 0.0447 µM. It also gave an Emax [4] of 81% and an EC50 [4, 8] of 0.0463 µM.

Reference: patent US20250109139A1, “TRICYCLIC COMPOUND, AND PREPARATION METHOD THEREFOR AND USE THEREOF” (SHANGHAITECH UNIVERSITY, priority 2022, published 2025)
